Marks after values point to notes of the source that are not given here.
What was measured:
GDF-15 [1] = conditions: patients with symptomatic heart failure (Anand et al.); cited from earlier work
[2] = tested on: B-type natriuretic peptide; conditions: patients with symptomatic heart failure (Anand et al.); cited from earlier work
GDF-15 [3] = assay: Serum GDF-15 by electrochemiluminescent immunoassay in placebo-controlled acute heart failure trial (Example 1); assay type: in vivo, human
Experimental: (§1) In an international, double-blind, placebo-controlled trial (Teerlink et al., Lancet 381:29-39 (2013)) the entire contents of which are herein incorporated by reference, patients displaying pulmonary congestion on chest radiograph and admitted to the hospital for acute heart failure were randomized to a 48 hour intravenous infusion of placebo or 30 μg/kg/d serelaxin. Time elapsed from arrival to the hospital to the intravenous administration of serelaxin was less than nine hours. […] The 48 hour infusion of serelaxin reduced cardiovascular death at 180 days ([…]). No previous intervention outcome trial in patients with acute heart failure has shown a beneficial effect on post discharge mortality.
Blood samples for biomarker analysis were collected in serum separating tubes prior to initiation of serelaxin or placebo (baseline) and at days 2, 5, 14, and 60. ‘The serum samples were centrifuged within 30 to 60 minutes of collection following visualization of a clot, frozen at −20° C. for up to four weeks, then sent on dry ice to a central laboratory for storage at −80° C. until the analysis was performed. GDF-15 was measured in the samples using a pre-commercial electrochemiluminescent immunoassay provided by Roche Diagnostics GmbH (Mannheim, Germany). All samples from the same patient were analyzed at the same time at a certified central laboratory by personnel blinded to patient treatment and study data. The reporting range for GDF-15 was 400 to 20,000 ng/L.
Multivariable linear regression models were developed for the changes in GDF-15 levels from baseline to days 2 and 14 using baseline patient clinical characteristics and routine laboratory measures; backwards elimination in the placebo, group was used, with p<0.10 as the criterion for retention in the model. Missing predictors were imputed with the treatment-group-specific median for continuous variables and mode for categorical variables. GDF-15 values were log-transformed. The linearity of associations was assessed using restricted cubic splines, and if significant non-linearity was found (at p<0.10), a dichotomized, trichotoniized, linear spline or quadratic or cubic polynomial transformation was chosen based on the univariable Akaike's Information Criterion. Adjusted R^2 values from 5-fold cross-validations are presented. The serelaxin effect on biomarker changes was then estimated in all patients with multivariable adjustment for covariates prognostic of these changes in the placebo group.

[4] = tested on: patients with acute heart failure; assay: Clinical outcomes in the acute heart failure trial (dyspnea, hospital stay, cardiovascular death); assay type: in vivo, human
Experimental: as §1
Changes in patient-reported dyspnea were assessed through day 5 as the area under the change from baseline in visual analog scale score through day 5, where the worst possible score was assigned following death or worsening heart failure (dyspnea VAS AUC). Reasons for rehospitalization through day 60 and causes of deaths through day 180 were adjudicated centrally by a blinded endpoint committee.

[5] = tested on: patients with acute heart failure; assay: Cox regression models of 180-day cardiovascular mortality in the acute heart failure trial; assay type: in vivo, human
Excerpt: Multivariable linear regression models were developed for the changes in biomarker levels from baseline to day 2 and 14 using baseline patient clinical characteristics and routine laboratory measures; backwards elimination in the placebo group was used, with p<0.10 as the criterion for retention in the model. Missing predictors were imputed with the treatment-group-specific median for continuous variables and mode for categorical variables. GDF-15 values were log-transformed. To allow consistency and comparability of models with and without biomarkers, missing follow-up biomarker levels were imputed using linear interpolation or as last observation carried forward if no following measure was available. The linearity of associations was assessed using restricted cubic splines, and if significant non-linearity was found (at p<0.10), a dichotomized, trichotomized, linear spline or quadratic or cubic polynomial transformation was chosen based on the univariable Akaike's Information Criterion. The serelaxin effect on GDF-15 changes was then estimated with multivariable adjustment for covariates prognostic of these changes in the placebo group.
Associations of baseline biomarker values and changes with clinical outcomes were estimated with linear regression for dyspnea VAS AUC, and with Cox regression models for 60-day rehospitalization for heart failure or renal failure or cardiovascular death and for 180-day cardiovascular mortality. Linearity of associations of GDF-15 values with outcomes was assessed as above. Mean changes in biomarkers over time were estimated from repeated measures analysis of variance models, with no imputation for missing values.

GDF-15 [6] = assay: GDF-15 in the pulmonary hemodynamic study, 20 hour infusion (Example 2); assay type: in vivo, human
Experimental: (§2) In a separate study, the pulmonary hemodynamic effects (e.g., the pulomonary load) of serelaxin were evaluated in patients hospitalized with acute heart failure (Ponikowski et al., Eur Heart J 35:431-441 (2014)). Patients were randomized 1:1 to serelaxin or placebo, initially stabilized, then infused with serelaxin at a dose of 30 ug/kg/d for 20 hours. Pulmonary congestion at the time of presentation was a required inclusion criterion. Time elapsed from hospital admission to the beginning of intravenous infusion of serelaxin was less than 29 hours. Serelaxin exerted rapid hemodynamic effects; changes were detected within the first 30 minutes of infusion and were sustained throughout the treatment period. Serelaxin reduced the time weighted average pulmonary capillary wedge pressure from baseline in the first eight hours of treatment (p=0.0001) as well as during hours 8-20 (p=0.03).
GDF-15 was measured in blood samples collected in serum separating tubes. The serum samples were centrifuged within two hours and plasma was stored at −20° C. or lower, followed by storage at −80° C. until the analysis was performed. GDF-15 was measured using a pre-commercial electrochemiluminescent immunoassay provided by Roche Diagnostics GmbH (Mannheim, Germany). All samples from the same patient were analyzed at the same time at a certified central laboratory by personnel blinded to patient treatment and study data.

[7] = tested on: patients hospitalized with acute heart failure; assay: Pulmonary hemodynamic effects in patients hospitalized with acute heart failure (Example 2); assay type: in vivo, human
Experimental: as §2
(§3) Pulmonary capillary wedge pressure (PCWP), mean pulmonary artery pressure (PAP), and pulmonary vascular resistance (PVR) were measured as well as NTproBNP and GDF-15 An analysis was performed of the association of GDF-15 and NTproBNP with these hemodynamic indices.

NTproBNP = NTproBNP in the pulmonary hemodynamic study (Example 2); assay type: in vivo, human; conditions: 20 hour infusion; p=0.037
Experimental: as §2, §3

[8] = tested on: patients with acute heart failure; conditions: Phase 3 trial in acute heart failure (Teerlink et al.); cited from earlier work
[9] = 30 ug/kg/d infusion for 20 hours

Compound: CCCCC(=O)N(Cc1ccc(-c2ccccc2-c2nnn[nH]2)cc1)[C@H](C(=O)O)C(C)C [Valsartan]
- effect on GDF-15 (GDF-15 [1]): no effect
- heart failure biomarker B-type natriuretic peptide [2]: lower

Compound: Serelaxin
- GeoMean GDF-15 (GDF-15 [3]; Baseline (before start of infusion)): 4380.3 ng/L
- Median GDF-15 (GDF-15 [3]; Baseline (before start of infusion), serelaxin group n = 530): 4115.5 ng/L
- GDF-15 GeoMean Change vs Baseline (GDF-15 [3]; Day 2): −21.6%*
- GeoMean GDF-15 (GDF-15 [3]; Day 2, 48 hour iv infusion 30 μg/kg/d): 3395.6 ng/L
- Median GDF-15 (GDF-15 [3]; Day 2, 48 hour iv infusion 30 μg/kg/d, n = 530): 3341.0 ng/L
- GDF-15 GeoMean Change vs Baseline (GDF-15 [3]; Day 5): −14.95* %
- GeoMean GDF-15 (GDF-15 [3]; Day 5, 48 hour iv infusion 30 μg/kg/d): 3690.3 ng/L
- Median GDF-15 (GDF-15 [3]; Day 5, 48 hour iv infusion 30 μg/kg/d, n = 530): 3584.5 ng/L
- GDF-15 GeoMean Change vs Baseline (GDF-15 [3]; Day 14): −20.2%*
- GeoMean GDF-15 (GDF-15 [3]; Day 14, 48 hour iv infusion 30 μg/kg/d): 3397.0 ng/L
- Median GDF-15 (GDF-15 [3]; Day 14, 48 hour iv infusion 30 μg/kg/d, n = 530): 3296.0 ng/L
- GDF-15 GeoMean Change vs Baseline (GDF-15 [3]; Day 60): −26.4%*
- GeoMean GDF-15 (GDF-15 [3]; Day 60, 48 hour iv infusion 30 μg/kg/d): 3114.0 ng/L
- Median GDF-15 (GDF-15 [3]; Day 60, 48 hour iv infusion 30 μg/kg/d, n = 530): 2981.5 ng/L
- GDF-15 levels versus placebo, both in addition to standard of care (GDF-15 [3]; day 14): approached statistical significance
- GDF-15 level (GDF-15 [3]; day 60): trend towards lower
- GDF-15 levels versus placebo, both in addition to standard of care (GDF-15 [3]; days 2 and 5): significantly lower
- decrease in GDF-15 (GDF-15 [3]; to day 14): faster decrease
- cardiovascular death at 180 days ([4]; 48 hour infusion, p=0.28): reduced
- patient-reported general well-being ([4]; 48 hour iv infusion 30 μg/kg/d): improvements
- primary dyspnea efficacy endpoint, Visual Acuity Scale area under the curve ([4]; 48 hour iv infusion 30 μg/kg/d vs placebo, p=0.007): significantly improved
- reduction of time in the intensive care or coronary care unit ([4]; vs placebo, p=0.03): 0.4 days
- reduction of average length of hospital stay ([4]; vs placebo, p=0.04): 0.9 days
- HR, CV death through Day 180 ([5]; adjusted for baseline GDF-15 and change in GDF-15 from baseline to Day 2): 0.832
- HR, CV death through Day 180 ([5]; adjusted for baseline GDF-15 and change in GDF-15 from baseline to Day 14, N = 1037): 0.847
- HR, CV death through Day 180 ([5]; adjusted for change in GDF-15 from baseline to Day 2 and multivariable predictors of outcome): 0.763
- HR, CV death through Day 180 ([5]; adjusted for change in GDF-15 from baseline to Day 14 and multivariable predictors of outcome, N = 1037): 0.753
- hazard ratio for 180-day CV mortality ([5]; multivariable adjustment for baseline covariates, without GDF-15 change, 95% CI 0.430-1.028): 0.665
- hazard ratio for 180-day CV mortality ([5]; unadjusted for other baseline covariates, 95% CI 0.403-0.950): 0.619
- GDF-15 levels versus placebo (GDF-15 [6]; [9]): significantly decreased
- reduction of GDF-15 geo-mean from baseline (GDF-15 [6]; [9]): 16%
- GDF-15 treatment difference in favor of serelaxin versus placebo (GDF-15 [6]; 30 ug/kg/d infusion for 20 hours, p=0.0204): 18%
- baseline median GDF-15 (GDF-15 [6]; baseline, serelaxin group): 3260 ng/L
- pulmonary vascular resistance ([7]; 30 ug/kg/d infusion): concomitant decrease
- systemic vascular resistance ([7]; 30 ug/kg/d infusion): concomitant decrease
- time weighted average pulmonary capillary wedge pressure from baseline ([7]; first eight hours of treatment, p=0.0001): reduced
- time until hemodynamic changes were detected ([7]; from start of infusion, sustained throughout the treatment period): ≤ 30 min
- time weighted average pulmonary capillary wedge pressure from baseline ([7]; hours 8-20, p=0.03): reduced
- improvements in PCWP, PAP and PVR compared to placebo ([7]; over the 20 hour infusion period, all p values <0.005): favored serelaxin
- systolic and diastolic pulmonary arterial pressure ([7]; p=0001 at four hours): significantly lowered
- NTproBNP (NTproBNP): significantly reduced
- dyspnea [8]: rapid relief
- mortality at six months [8]: reduced

Source: patent US20190022189A1, “USE OF SERELAXIN TO REDUCE GDF-15” (NOVARTIS AG, priority 2014, published 2019)
